Laboratory results from patent publication US12077503B2, “Substituted cyclic amides and their use as herbicides” (FMC CORPORATION, priority 2015, dated 2024).

How the values were obtained:
Format in all cases: in vivo
[1] = system: ryegrass, Italian (Italian ryegrass, Lolium multiflorum); test: Test A preemergence; conditions: Lolium multiflorum, pre-emergence, 240 h, 0 to 100 scale where 0 is no effect and 100 is complete control, read-out: Ryegrass, Italian plant response rating
Procedure, shortened: (§1)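 Visual injury, scored on a 0–100 scale relative to untreated controls, was recorded about 10 d after application. Treatments were a preemergence soil spray over planted seeds or a postemergence spray on plants at the one- to two-leaf stage, 2 to 10 cm tall, all in loam soil–sand blend in the greenhouse.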

[2] = system: barnyardgrass (Echinochloa crus-galli); test: Test A preemergence; conditions: Echinochloa crus-galli, pre-emergence, 240 h, 0 to 100 scale where 0 is no effect and 100 is complete control, read-out: Barnyardgrass plant response rating
Procedure, shortened: as §1

Kochia (Kochia scoparia) [3] = test: Test A preemergence; conditions: Bassia scoparia, pre-emergence, 240 h, 0 to 100 scale where 0 is no effect and 100 is complete control, read-out: Kochia plant response rating
Procedure, shortened: as §1

[4] = system: giant foxtail (Setaria faberii); test: Test A preemergence; conditions: Setaria faberi, pre-emergence, 240 h, 0 to 100 scale where 0 is no effect and 100 is complete control, read-out: Foxtail, Giant plant response rating
Procedure, shortened: as §1

[5] = system: pigweed (Amaranthus retroflexus); test: Test A preemergence; conditions: Amaranthus retroflexus, pre-emergence, 240 h, 0 to 100 scale where 0 is no effect and 100 is complete control, read-out: Pigweed plant response rating
[6] = system: ragweed (common ragweed, Ambrosia elatior); test: Test A preemergence; conditions: Ambrosia artemisiifolia, pre-emergence, 240 h, 0 to 100 scale where 0 is no effect and 100 is complete control, read-out: Ragweed plant response rating
Procedure, shortened: as §1

[7] = system: ryegrass, Italian (Italian ryegrass, Lolium multiflorum); test: Test A postemergence; conditions: Lolium multiflorum, post-emergence, 240 h, read-out: Ryegrass, Italian plant response rating (0 to 100 scale)
Procedure, shortened: as §1

[8] = system: barnyardgrass (Echinochloa crus-galli); test: Test A postemergence; conditions: Echinochloa crus-galli, post-emergence, 240 h, read-out: Barnyardgrass plant response rating (0 to 100 scale)
Procedure, shortened: as §1

Kochia (Kochia scoparia) [9] = test: Test A postemergence; conditions: Bassia scoparia, post-emergence, 240 h, read-out: Kochia plant response rating (0 to 100 scale)
Procedure, shortened: as §1

[10] = system: blackgrass (Alopecurus myosuroides); test: Test A postemergence; conditions: Alopecurus myosuroides, post-emergence, 240 h, read-out: Blackgrass plant response rating (0 to 100 scale)
Procedure, shortened: as §1

[11] = system: giant foxtail (Setaria faberii); test: Test A postemergence; conditions: Setaria faberi, post-emergence, 240 h, read-out: Foxtail, Giant plant response rating (0 to 100 scale)
Procedure, shortened: as §1

[12] = system: wheat (Triticum aestivum); test: Test A postemergence; conditions: Triticum aestivum, post-emergence, 240 h, read-out: Wheat plant response rating (0 to 100 scale)
Procedure, shortened: as §1

[13] = system: pigweed (Amaranthus retroflexus); test: Test A postemergence; conditions: Amaranthus retroflexus, post-emergence, 240 h, read-out: Pigweed plant response rating (0 to 100 scale)
Procedure, shortened: as §1

corn (Zea mays) = test: Test A postemergence; conditions: Zea mays, post-emergence, 240 h, read-out: Corn plant response rating (0 to 100 scale)
Procedure, shortened: as §1

[14] = system: ragweed (common ragweed, Ambrosia elatior); test: Test A postemergence; conditions: Ambrosia artemisiifolia, post-emergence, 240 h, read-out: Ragweed plant response rating (0 to 100 scale)
Procedure, shortened: as §1

[15] = system: Galium (catchweed bedstraw, Galium aparine); test: Test A postemergence; conditions: Galium, post-emergence, 240 h, read-out: Galium plant response rating (0 to 100 scale)
Procedure, shortened: as §1

[16] = system: barnyardgrass (Echinochloa crus-galli); test: Test B flooded paddy test; conditions: Echinochloa crus-galli, 250 g ai/ha, Flood; 0 to 100 scale where 0 is no effect and 100 is complete control; read-out: Barnyardgrass plant response rating
Procedure, shortened: (§2)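 Response scored visually against untreated controls, 0 = no effect and 100 = complete control, 13–15 d after treatment in the greenhouse. Compounds added to paddy water held 3 cm above soil surface. Treatment given at 2-leaf stage.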

rice (Oryra sativa) = test: Test B flooded paddy test; conditions: Oryza sativa, 250 g ai/ha, Flood; 0 to 100 scale where 0 is no effect and 100 is complete control; read-out: Rice plant response rating
Procedure, shortened: as §2

[17] = system: ducksalad (Heteranthera limosa); test: Test B flooded paddy test; conditions: Heteranthera limosa, 250 g ai/ha, Flood; 0 to 100 scale where 0 is no effect and 100 is complete control; read-out: Ducksalad plant response rating
Procedure, shortened: as §2

[18] = system: sedge, umbrella (small-flower umbrella sedge, Cyperus difformis); test: Test B flooded paddy test; conditions: Cyperus difformis, 250 g ai/ha, Flood; 0 to 100 scale where 0 is no effect and 100 is complete control; read-out: Sedge, Umbrella plant response rating
Procedure, shortened: as §2

[19] = 125 g ai/ha, preemergence, visual injury rating, approximately 10 d
[20] = 125 g ai/ha, postemergence, visual injury vs untreated controls after approx. 10 d, 0 = no effect, 100 = complete control
[21] = Postemergence, 31 g ai/ha, 0 is no effect, 100 is complete control

**Q.** How did the pest or weed control at 31 g/ha ([1]; 31 g ai/ha, Preemergence) turn out when `CN1C[C@H](c2ccc(C#N)c(F)c2)[C@@H](C(=O)Nc2ccccc2F)C1=O` [Compound 1190] was run?
**A.** 0%

**Q.** What about the pest or weed control at 125 g/ha [1, 19] of the same molecule?
**A.** 0%

**Q.** And the pest or weed control at 31 g/ha ([2]; 31 g ai/ha, Preemergence)?
**A.** 50%

**Q.** What about the pest or weed control at 125 g/ha [2, 19] of the same molecule?
**A.** 90%

**Q.** What about the pest or weed control at 31 g/ha (Kochia (Kochia scoparia) [3]; 31 g ai/ha, Preemergence) of the same molecule?
**A.** 0%

**Q.** And the pest or weed control at 125 g/ha (Kochia (Kochia scoparia) [3]; [19])?
**A.** 0%

**Q.** What about the pest or weed control at 31 g/ha ([4]; 31 g ai/ha, Preemergence) of the same molecule?
**A.** 60%

**Q.** What about the pest or weed control at 125 g/ha [4, 19] of the same molecule?
**A.** 90%

**Q.** And the pest or weed control at 31 g/ha ([5]; 31 g ai/ha, Preemergence)?
**A.** 0%

**Q.** What about the pest or weed control at 125 g/ha [5, 19] of the same molecule?
**A.** 0%

**Q.** What about the pest or weed control at 31 g/ha ([6]; 31 g ai/ha, Preemergence) of the same molecule?
**A.** 0%

**Q.** And the pest or weed control at 125 g/ha [6, 19]?
**A.** 0%

**Q.** What about the pest or weed control at 125 g/ha [7, 20] of the same molecule?
**A.** 0%

**Q.** What about the pest or weed control at 31 g/ha [7, 21] of the same molecule?
**A.** 0%

**Q.** What about the pest or weed control at 125 g/ha [8, 20] of the same molecule?
**A.** 60%

**Q.** And the pest or weed control at 31 g/ha [8, 21]?
**A.** 0%

**Q.** And the pest or weed control at 125 g/ha (Kochia (Kochia scoparia) [9]; [20])?
**A.** 0%

**Q.** What about the pest or weed control at 31 g/ha (Kochia (Kochia scoparia) [9]; [21]) of the same molecule?
**A.** 0%

**Q.** What about the pest or weed control at 125 g/ha [10, 20] of the same molecule?
**A.** 0%

**Q.** And the pest or weed control at 31 g/ha [10, 21]?
**A.** 0%

**Q.** What about the pest or weed control at 125 g/ha [11, 20] of the same molecule?
**A.** 20%

**Q.** And the pest or weed control at 31 g/ha [11, 21]?
**A.** 0%

**Q.** And the plant injury at 125 g/ha [12, 20]?
**A.** 0%

**Q.** And the plant injury at 31 g/ha [12, 21]?
**A.** 0%

**Q.** And the pest or weed control at 125 g/ha [13, 20]?
**A.** 0%

**Q.** And the pest or weed control at 31 g/ha [13, 21]?
**A.** 0%

**Q.** And the plant injury at 125 g/ha (corn (Zea mays); [20])?
**A.** 0%

**Q.** What about the plant injury at 31 g/ha (corn (Zea mays); [21]) of the same molecule?
**A.** 0%

**Q.** What about the pest or weed control at 125 g/ha [14, 20] of the same molecule?
**A.** 0%

**Q.** And the pest or weed control at 31 g/ha [14, 21]?
**A.** 0%

**Q.** What about the pest or weed control at 125 g/ha [15, 20] of the same molecule?
**A.** 20%

**Q.** And the pest or weed control at 31 g/ha [15, 21]?
**A.** 0%

**Q.** What about the pest or weed control at 250 g/ha [16] of the same molecule?
**A.** 55%

**Q.** And the pest or weed control at 250 g/ha (rice (Oryra sativa))?
**A.** 40%

**Q.** What about the pest or weed control at 250 g/ha [17] of the same molecule?
**A.** 90%

**Q.** And the pest or weed control at 250 g/ha [18]?
**A.** 0%
